From US20030073654A1, “Stabilized transient gene expression” (Genespan Corporation, priority 1996, published 2003)
“Also recorded” adds a separate entry of the source.

Experiments:
[1] = test system: SW480 P3 (ATCC #CCL228) human colon carcinoma cells; assay: Screening assay for enhancement of transient expression (β-galactosidase gene, liposomal transfection, 6-well plates); format: cell-based
From the text: These parameters are called the “X” factor, the “G” factor, and the “K” factor. [formula]
This factor reflects the extent to which a chemical compound added to a transfected cell enhances stabilizes transient expression for the first four days following transfection. […] For example, if expression is doubled in the presence of a compound, […]. […] X may be calculated similarly when the agent in question is a mixture of more than one chemical compound.
Cumulative protein expression, i.e., the values for “A” and “C”, is measured by summing the values measured daily in aliquots of the cultured cells.
2. G factors. G factors differ from the X factor only with respect to the time period evaluated. For calculating a G factor, the amount of protein expressed is measured from days 4-7 or days 4-14, where day 0 is the day on which the foreign DNA is added to the cells. The subscripts denote which of the two time periods provided the basis for measurement. […] As for the X factor, [formula]
3. K factor. The K factor is the ratio of the rate constants for the change in the foreign DNA expression in control transfected cells and in cells exposed to a chemical compound of the subject invention. K is determined according to the following equation: [formula]
wherein “k(DNA)” is the first order rate constant for the change in concentration of the protein expressed from the transgenic DNA, which is expressing protein as a function of time, i.e., [formula]
Values for k(DNA) are derived by using a computer program that plots the log of the foreign protein concentration against time, using the results of transgenic protein measurements that begin about 24 hours after the foreign DNA has been added to the cell. […] However, the program calculates a “best fit” line for each data set, and determines the slope of that portion of the resulting line that corresponds to the period during which protein production is changing. […] Thus, the slope is calculated during this period of decline to provide values for k(DNA) and K that can be compared for the purpose of comparing the efficacy of different chemical compounds.
SW480 P3 (ATCC #CCL228) human colon carcinoma cells (typically, 1×10^6 cells) were plated in the wells of a 6-well tissue culture plate. The number of wells plated reflected the number of days post-transfection during which the experiment would proceed. Each well contained 1 ml of complete media from a 30 ml stock solution containing: 26.4 ml RPMI tissue culture medium, 4 mM L-glutamine, 3.0 ml fetal bovine serum, and 10 μg/ml gentamicin. Cells were cultured at 37° C. in a CO2 incubator with 10% CO2 for 24 hours after being plated, during which time the cells adhered to the plates.
After the 24 hour pre-incubation step, the transfection step was carried out by removing the RPMI and adding 900 μL OPTI-MEM® (Gibco) medium containing 2 μg of VR1412 DNA (Vical, Inc., San Diego, Calif.), which expresses the bacterial β-galactosidase gene under the control of a cytomegalovirus promoter, and 8 μg of a mixture of cationic lipid (1,2-dimyristyloxyproply-3-dimethyl-hydroxyethyl ammonium bromide (e.g., “DMRIE/DOPE”) mixed in equimolar proportions with dioleoylphosphatidylethanolamine) to yield a lipid:DNA molar ratio of 0.99:1. It should be noted that typical transient transfection protocols employ 10 μg DNA per 10^6 cells, but the protocol described here uses less DNA in order to reduce toxicity to the cells. The plates were then incubated for 4 hours at 37° C.
After the 4 hour incubation step, 100 μl of heat deactivated fetal bovine serum (to stop transfection), plus 12.0 μl of 50 mg/ml gentamicin were added to each well.

SW480 cells = assay: Transient expression in HPBr hollow fiber perfusion bioreactor (2-week β-galactosidase production); format: cell-based, human; details: relatively high rotational speed
Description: A series of four lipofection-based gene transfection experiments were conductive in a high performance hollow fiber perfusion prototype bioreactor device (hereafter referred to as the […] device) in a Genespan prototype incubator instrument. The device consists essentially of a sterile chamber through which two sets of hollow fibers are passed. Culture medium is continuously circulated through one set of fibers, while gases required (e.g., oxygen and carbon dioxide) for cell growth are passed through the second set of fibers. The fibers are composed of a porous material through which gases and nutrients can pass in one direction, while waste molecules produced by the cells growing within the chamber can pass in the other direction. Cells growing in the device may remain in suspension, or may attach to the outer surfaces of both sets of hollow fibers.
A useful feature of the HPBr device is that the cells can be agitated by rotating the chamber through which the tubes pass. […]
Daily samples (about 1.5 ml) of cells and supernatant were taken from the cell compartment of each bioreactor and an equal volume of fresh media was added to replace it. Cell counts and viabilities were determined, and […] were lysed and retained for β-galactosidase determination using the spectrophotometric method described in Example 1. […]

chondroitin sulfate
effect on transient expression [1]: capable of prolonging transient expression
effect on transient expression when present before or during the transfection step ([1]; polyanionic carbohydrates, liposomal transfection): allowed the transfection to proceed unimpeded; also recorded: enhanced transient expression
cell adhesion to microcarrier (SW480 cells): enabled the anchorage-dependent cells to adhere well to the microcarrier
